# Laboratory results published in US20230330059A1, “3-PHENYL-2H-CHROMENE DERIVATIVE AND PHARMACEUTICAL COMPOSITION FOR PREVENTING OR TREATING ALZHEIMER'S, CONTAINING SAME” (NEUROBIONET, INC., priority 2020, published 2023).
# Key:
# [1] = system: COX-2; test: COX-2 protein expression (western blot) in LPS-treated BV2 cells; format: cell-based, mouse; details: 5 µM, LPS (100 ng/ml) 24 hours, FIG. 11a
# Method: (§1) BV2 cells were aliquoted at a density of 1x10^6 cells/well into 60 mm dishes and stabilized for 24 hours. Thereafter, the cells were treated with 5 µM of S-equal, SPA1413, or SPA1426 for 30 minutes and then with LPS (100 ng/ml) for 24 hours at 37° C. After being cultured to reach 100% confluence, the cells were washed with PBS and lysed with a lysis buffer (PRO-PREP™ Protein Extraction Solution, Intron Biotechnology, Seongnam, Korea). With bovine serum albumin (BSA) serving as a standard, the protein contents of the lysate supernatants were measured by Bio-Rad Protein Assay (Bio-Rad, California, USA) to determine the total protein content in each sample. Afterwards, each of the samples was loaded in a protein amount of 30 µg on a 10-12% SDS-PAGE gel and run for electrophoresis. The electrophorized proteins were transferred to a PVDF membrane which was then blocked with 5% skim milk and incubated with antibodies to COX-2 or iNOS (Cell Signaling Technologies, Massachusetts, USA). Detection was conducted with a ChemiDoc XRS+ imaging system (Bio-Rad, CA, USA).
# [2] = system: IL-6; test: IL-6 production (ELISA) in LPS-treated BV2 cells; format: cell-based, mouse; details: 5 µM, LPS (100 ng/ml) 24 hours, FIG. 10a
# Method: BV2 cells were seeded at a density of 4x10^5 cells/well into 96-well plates and stabilized for 24 hours. Thereafter, the cells were treated with 5 µM of daidzein, o-desmethylangolensin, S-equal, SPA1413, or SPA1426 for 30 minutes and then with LPS (100 ng/ml) for 24 hours at 37° C. The culture medium was collected and quantitatively measured for IL-6 and TNF-a released to the BV2 culture supernatant, using the enzyme immunoassay method […] Enzyme-Linked Immuno Assay (ELISA) kit (R&D systems, Minneapolis, MN, USA). The IL-6 and TNF-a releases from the groups treated with the samples were evaluated relative to that from the LPS-treated group, which was set to be 100%, and the results are depicted in FIGS. 10a and 10b.
# [3] = target: T1, Aβ42 (Homo sapiens, UniProt P05067); test: Multimer detection system (MDS) assay of Aβ42 oligomerization; format: biochemical; details: compounds 100 µM, Aβ42 200 µg/mL; compared to negative control and Daidzein or Equol; FIG. 2
# T1 construct: 1,1,1,3,3,3-hexafluoro-2-propanol-treated Aβ42 (# A-1163-1, rPeptide); purchased rPeptide A-1163-1
# Method: The drugs selected on the basis of the ThT assay results were evaluated for inhibitory activity against the oligomerization of Aβ42, using a multimer detection system (MDS) assay. Immediately after being dissolved in 1% NH4OH (# 221228, Sigma-Aldrich), 1,1,1,3,3,3-hexafluoro-2-propanol-treated Aβ42 (# A-1163-1, rPeptide) was diluted in 500 µL of phosphate-buffered saline (PBS; pH 7.5), aliquoted into 1.5-mL tubes, and stored at -80° C. until use. Aβ42 and the compounds were mixed with PBS to make final concentrations of 200 µg/mL and 100 µM, respectively, and incubated at room temperature. Aggregation of Aβ42 was terminated by maintaining at -80° C.
# After the reaction between each drug and Aβ42, the oligomeric form of Aβ42 was measured for each time to measure inhibitory effects on the oligomer.
# [4] = system: LPS-treated BV2 cells; test: Cell viability of LPS-treated BV2 cells; format: cell-based, mouse; details: FIG. 8b
# Method: Mouse-derived microglia (BV2 cells) purchased from the Korean Cell Line Bank were seeded at a density of 4x10^5 cells/well into 96-well plates, each well containing DMEM (Dulbecco’s Modified Eagle’s Media) supplemented with 10% FBS and 1% antibiotics, and stabilized by incubation for 24 hours. Thereafter, the cells were treated for 24 hours with various concentrations (0.5, 1, and 5 µM) of daidzein, o-desmethylangolensin (O-DMA), S-equal, SPA1413, and SPA1426. After removal of the medium, the cells were treated 0.5 mg/ml 3-(4,5-dimethylthiazol-2-yl)-2,5-diphenyltetrazolium bromide (MTT) solution 1 hour. The reduced formazan was dissolved in 150 µl of dimethyl sulfoxide (DMSO) and absorbance was read at 570 nm in a microspectrophotometer to determine cell viability. Cell viability of the cells treated with each sample was determined relative to that of the untreated normal control (Control), which was set to be 100%, and the results are depicted in FIGS. 3 and 4 (upper).
# After stabilization for 24 hours, the cells were treated with various concentrations (1 and 5 µM) of daidzein, o-desmethylangolensin, S-equal, SPA1413, and SPA1426 for 30 minutes and then with LPS (100 ng/ml) for 24 hours at 37° C. […]
# [5] = system: iNOS; test: iNOS protein expression (western blot) in LPS-treated BV2 cells; format: cell-based, mouse; details: 5 µM, LPS (100 ng/ml) 24 hours, FIG. 11b
# Method: as §1
# [6] = system: p38; test: p38 protein expression (western blot) in LPS-treated BV2 cells; format: cell-based, mouse; details: 5 µM, compared to the LPS-treated group, FIG. 12b
# Method: as §1, with “JNK” for “COX-2”, “p38” for “iNOS”
# T1 sequence (P05067 672-713 limits assumed): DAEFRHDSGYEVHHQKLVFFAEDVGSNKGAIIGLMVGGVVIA
Compound,expression level of COX-2 [1],IL-6 production [2],inhibition of Aβ42 oligomerization [3],cell viability compared to the group treated with LPS [4],expression level of iNOS [5],expression level of P38 protein [6]
"Oc1ccc(C2=Cc3ccc(O)cc3OC2)cc1 [SPA1413, 3-(4-Hydroxyphenyl)-2H-chromen-7-ol]",significantly decreased,significantly decreased,exhibited inhibitory effects on Aβ42 oligomerization,increased,significantly decreased,decreased
"CCCC(=O)Oc1ccc(C2=Cc3ccc(OC(=O)CCC)cc3OC2)cc1 [SPA1426, 4-(7-(butyryloxy)-2H-chromen-3-yl)phenyl butyrate]",significantly decreased,significantly decreased,exhibited inhibitory effects on Aβ42 oligomerization,increased,significantly decreased,decreased
